“And” between values parts separate entries of the source, which are not always exact repeats. Equal values may be shown once.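 Growth conditions: 96-well plates. Treatment: test compound, 48 hours, 5 concentrations. Analysis: linear interpolation between bracketing concentrations; unreached endpoints set to highest concentration. At the GI50, growth is halved. TGI marks complete inhibition of growth.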
Experiments:
Assay in all cases: NCI-60 cell line screen, 48 h
IGROV1 ovarian = system: IGROV1 ovarian
CAKI-1 renal = system: CAKI-1 renal
TK-10 renal = system: TK-10 renal
DU-145 prostate = system: DU-145 prostate
RXF 393 renal = system: RXF 393 renal
CCRF-CEM leukemia = system: CCRF-CEM leukemia
UO-31 renal = system: UO-31 renal
SN12C renal = system: SN12C renal
UACC-62 melanoma = system: UACC-62 melanoma
PC-3 prostate = system: PC-3 prostate
SK-MEL-2 melanoma = system: SK-MEL-2 melanoma
LOX IMVI melanoma = system: LOX IMVI melanoma
HT29 colon = system: HT29 colon
SK-MEL-28 melanoma = system: SK-MEL-28 melanoma
NCI-H226 lung = system: NCI-H226 lung
U251 CNS = system: U251 CNS
MDA-MB-435 = system: MDA-MB-435
A549 NSCLC = system: A549 NSCLC
OVCAR-8 ovarian = system: OVCAR-8 ovarian
MALME-3M melanoma = system: MALME-3M melanoma
K-562 leukemia = system: K-562 leukemia
SK-MEL-5 melanoma = system: SK-MEL-5 melanoma
OVCAR-5 ovarian = system: OVCAR-5 ovarian
T-47D breast = system: T-47D breast
HL-60(TB) leukemia = system: HL-60(TB) leukemia
EKVX NSCLC = system: EKVX NSCLC
ACHN renal = system: ACHN renal
NCI-H23 lung = system: NCI-H23 lung
KM12 colon = system: KM12 colon
HCC-2998 colon = system: HCC-2998 colon
MOLT-4 leukemia = system: MOLT-4 leukemia
NCI-H460 lung = system: NCI-H460 lung
SK-OV-3 ovarian = system: SK-OV-3 ovarian
SNB-75 CNS = system: SNB-75 CNS
NCI/ADR-RES ovarian = system: NCI/ADR-RES ovarian
HCT-15 colon = system: HCT-15 colon
HOP-62 NSCLC = system: HOP-62 NSCLC
A498 renal = system: A498 renal
HS 578T breast = system: HS 578T breast
OVCAR-4 ovarian = system: OVCAR-4 ovarian
SNB-19 CNS = system: SNB-19 CNS
OVCAR-3 ovarian = system: OVCAR-3 ovarian
COLO 205 colon = system: COLO 205 colon
BT-549 breast = system: BT-549 breast
SF-539 CNS = system: SF-539 CNS
MCF7 breast = system: MCF7 breast
SF-295 CNS = system: SF-295 CNS
UACC-257 melanoma = system: UACC-257 melanoma
SF-268 CNS = system: SF-268 CNS
NCI-H522 lung = system: NCI-H522 lung
SW-620 colon = system: SW-620 colon
HOP-92 NSCLC = system: HOP-92 NSCLC
M14 melanoma = system: M14 melanoma
RPMI-8226 leukemia = system: RPMI-8226 leukemia
MDA-MB-231 breast = system: MDA-MB-231 breast
SR leukemia = system: SR leukemia
786-0 renal = system: 786-0 renal
HCT-116 colon = system: HCT-116 colon

CC(=O)Nc1cccc(-n2c(=O)n(C3CC3)c(=O)c3c(Nc4ccc(I)cc4F)n(C)c(=O)c(C)c32)c1
GI50 (IGROV1 ovarian): 34 nM and 22.1 nM | TGI (IGROV1 ovarian): > 81.6 µM | GI50 (CAKI-1 renal): 203 nM | TGI (CAKI-1 renal): > 46.5 µM | GI50 (TK-10 renal): < 14.4 nM and 9.77 nM | TGI (TK-10 renal): 20.7 µM and > 10 µM | GI50 (DU-145 prostate): 3.36 µM and > 4.01 µM | TGI (DU-145 prostate): 93.9 µM and > 10 µM | GI50 (RXF 393 renal): 66.1 nM and 148 nM | TGI (RXF 393 renal): 13.1 µM and > 5.97 µM | GI50 (CCRF-CEM leukemia): 9.15 µM and > 10 µM | TGI (CCRF-CEM leukemia): > 100 µM | GI50 (UO-31 renal): 141 nM and 65.4 nM | TGI (UO-31 renal): 10.1 µM and > 10 µM | GI50 (SN12C renal): 2390 nM and > 2410 nM | TGI (SN12C renal): > 100 µM | GI50 (UACC-62 melanoma): < 10 nM and 1.84 nM | TGI (UACC-62 melanoma): 18.2 nM | GI50 (PC-3 prostate): 6.33 µM and > 10 µM | TGI (PC-3 prostate): 46.3 µM and > 10 µM | GI50 (SK-MEL-2 melanoma): < 10 nM and 2 nM | TGI (SK-MEL-2 melanoma): 54.4 nM | GI50 (LOX IMVI melanoma): < 12.2 nM and 26.2 nM | TGI (LOX IMVI melanoma): 5.46 µM and > 10 µM | GI50 (HT29 colon): < 10 nM and 1.72 nM | TGI (HT29 colon): 15.9 µM and > 10 µM | GI50 (SK-MEL-28 melanoma): < 10 nM and 1.8 nM | GI50 (NCI-H226 lung): 4.37 µM and > 4.88 µM | TGI (NCI-H226 lung): 47.8 µM and > 10 µM | GI50 (U251 CNS): 401 nM | TGI (U251 CNS): 32 µM and > 10 µM | GI50 (MDA-MB-435): < 10 nM and 3.13 nM | TGI (MDA-MB-435): 25 µM and > 10 µM | GI50 (A549 NSCLC): 34.5 nM and 122 nM | TGI (A549 NSCLC): > 43.8 µM | GI50 (OVCAR-8 ovarian): 4.22 µM and > 6.71 µM | TGI (OVCAR-8 ovarian): > 49.6 µM | GI50 (MALME-3M melanoma): < 10 nM and 1.64 nM | TGI (MALME-3M melanoma): < 10 nM | GI50 (K-562 leukemia): 95.5 nM and 196 nM | TGI (K-562 leukemia): > 100 µM | TGI (SK-MEL-5 melanoma): 15.9 µM and > 10 µM | GI50 (OVCAR-5 ovarian): < 10 nM and 4.72 nM | TGI (OVCAR-5 ovarian): 29.8 µM and > 10 µM | GI50 (T-47D breast): 14.9 µM and > 10 µM | TGI (T-47D breast): > 77 µM | GI50 (HL-60(TB) leukemia): < 10 nM and 1.41 nM | TGI (HL-60(TB) leukemia): > 41.7 µM | GI50 (EKVX NSCLC): 13.5 nM and 44.3 nM | TGI (EKVX NSCLC): > 71 µM | GI50 (ACHN renal): 490 nM and 291 nM | TGI (ACHN renal): > 79.5 µM | GI50 (NCI-H23 lung): < 10 nM and 21.2 nM | TGI (NCI-H23 lung): 19.3 µM and > 10 µM | GI50 (KM12 colon): 10.2 nM and 22.5 nM | TGI (KM12 colon): > 53.7 µM | GI50 (HCC-2998 colon): < 10 nM and 2.4 nM | TGI (HCC-2998 colon): 15.7 µM and > 10 µM | GI50 (MOLT-4 leukemia): 6.96 µM and > 9.64 µM | TGI (MOLT-4 leukemia): > 100 µM | GI50 (NCI-H460 lung): 3.19 µM and > 4.26 µM | TGI (NCI-H460 lung): > 93.6 µM | GI50 (SK-OV-3 ovarian): 8.58 µM | TGI (SK-OV-3 ovarian): > 85.4 µM | GI50 (SNB-75 CNS): 3.2 µM and > 2.79 µM | TGI (SNB-75 CNS): > 55.2 µM | GI50 (NCI/ADR-RES ovarian): 2290 nM and > 10000 nM | TGI (NCI/ADR-RES ovarian): 40.6 µM and > 10 µM | GI50 (HCT-15 colon): 650 nM and 864 nM | TGI (HCT-15 colon): > 75.3 µM | GI50 (HOP-62 NSCLC): 12.1 nM | TGI (HOP-62 NSCLC): > 50.7 µM | GI50 (A498 renal): < 10 nM and 5.96 nM | TGI (A498 renal): < 30.6 nM and 67.2 nM | GI50 (HS 578T breast): 4.06 µM and 4.64 µM | TGI (HS 578T breast): 43.8 µM and > 10 µM | GI50 (OVCAR-4 ovarian): 515 nM and 2650 nM | TGI (OVCAR-4 ovarian): > 100 µM | GI50 (SNB-19 CNS): 5.11 µM and > 2.09 µM | TGI (SNB-19 CNS): > 100 µM | GI50 (OVCAR-3 ovarian): 8.33 µM and > 10 µM | TGI (OVCAR-3 ovarian): 60.9 µM and > 10 µM | GI50 (COLO 205 colon): < 10 nM and 1.25 nM | GI50 (BT-549 breast): 6.33 µM and > 9.61 µM | TGI (BT-549 breast): 35.5 µM and > 10 µM | GI50 (SF-539 CNS): 1150 nM and > 3690 nM | TGI (SF-539 CNS): 22.1 µM and > 10 µM | GI50 (MCF7 breast): 12.1 µM and > 8.55 µM | TGI (MCF7 breast): > 69.5 µM | GI50 (SF-295 CNS): 7.21 µM and > 10 µM | TGI (SF-295 CNS): 59.4 µM and > 10 µM | GI50 (UACC-257 melanoma): < 10 nM and 1.82 nM | TGI (UACC-257 melanoma): < 10 nM and 12.6 nM | GI50 (SF-268 CNS): 3.85 µM and > 6.08 µM | TGI (SF-268 CNS): > 100 µM | GI50 (NCI-H522 lung): 3.79 µM and > 2.33 µM | TGI (NCI-H522 lung): 22 µM and > 10 µM | GI50 (SW-620 colon): < 10 nM and 6.22 nM | TGI (SW-620 colon): > 48.8 µM | GI50 (HOP-92 NSCLC): < 10 nM and 11 nM | GI50 (M14 melanoma): < 10 nM and 1.73 nM | TGI (M14 melanoma): < 10 nM | GI50 (RPMI-8226 leukemia): 5.35 µM and > 4.38 µM | TGI (RPMI-8226 leukemia): > 100 µM | GI50 (MDA-MB-231 breast): 34.5 nM | TGI (MDA-MB-231 breast): 14 µM and > 10 µM | GI50 (SR leukemia): 3.65 µM and > 10 µM | TGI (SR leukemia): 45.6 µM and > 10 µM | GI50 (786-0 renal): 4.02 µM and > 7.71 µM | TGI (786-0 renal): > 57.7 µM | GI50 (HCT-116 colon): < 10 nM and 9.86 nM | TGI (HCT-116 colon): 12.5 µM and > 10 µM

Source: PubChem BioAssay (NCI)
